Data on 34 compounds can be found in patent publication US12649737B2, “Compounds and uses thereof” (Foghorn Therapeutics Inc., priority 2020, dated 2026).

As usually defined, the IC50 is the concentration that gives 50% inhibition.

The target in test [1] is T1, BRG-1 (Homo sapiens, UniProt P51532).
T1 construct: made in house; host or cells: High Five insect cells
Briefly: ATPase catalytic activity assay of BRG-1 (ADP-Glo). Format: biochemical. As to conditions: 30 nM BRG-1, 400 μM ATP, 20 nM salmon sperm DNA, 1 hour at room temperature; read-out: BRG1 ATPase: IC50. As for the experimental part:
(§1) Example 38. Assay for ATPase Catalytic Activity of BRM and BRG-1
(§2) The ADP-Glo™ kinase assay is performed in two steps once the reaction is complete.
(ADP-Glo turns the ADP formed in a reaction into a luminescent signal.)

For test [2], the target named is T2, BRM (Homo sapiens, UniProt P51531).
T2 construct: made in house; host or cells: High Five insect cells
In words: ATPase catalytic activity assay of BRM (ADP-Glo). The class given is biochemical. As to conditions: 30 nM BRM, 400 μM ATP, 20 nM salmon sperm DNA, 1 hour at room temperature. As for the experimental part: as §1, §2

T1 sequence (P51532 whole entry): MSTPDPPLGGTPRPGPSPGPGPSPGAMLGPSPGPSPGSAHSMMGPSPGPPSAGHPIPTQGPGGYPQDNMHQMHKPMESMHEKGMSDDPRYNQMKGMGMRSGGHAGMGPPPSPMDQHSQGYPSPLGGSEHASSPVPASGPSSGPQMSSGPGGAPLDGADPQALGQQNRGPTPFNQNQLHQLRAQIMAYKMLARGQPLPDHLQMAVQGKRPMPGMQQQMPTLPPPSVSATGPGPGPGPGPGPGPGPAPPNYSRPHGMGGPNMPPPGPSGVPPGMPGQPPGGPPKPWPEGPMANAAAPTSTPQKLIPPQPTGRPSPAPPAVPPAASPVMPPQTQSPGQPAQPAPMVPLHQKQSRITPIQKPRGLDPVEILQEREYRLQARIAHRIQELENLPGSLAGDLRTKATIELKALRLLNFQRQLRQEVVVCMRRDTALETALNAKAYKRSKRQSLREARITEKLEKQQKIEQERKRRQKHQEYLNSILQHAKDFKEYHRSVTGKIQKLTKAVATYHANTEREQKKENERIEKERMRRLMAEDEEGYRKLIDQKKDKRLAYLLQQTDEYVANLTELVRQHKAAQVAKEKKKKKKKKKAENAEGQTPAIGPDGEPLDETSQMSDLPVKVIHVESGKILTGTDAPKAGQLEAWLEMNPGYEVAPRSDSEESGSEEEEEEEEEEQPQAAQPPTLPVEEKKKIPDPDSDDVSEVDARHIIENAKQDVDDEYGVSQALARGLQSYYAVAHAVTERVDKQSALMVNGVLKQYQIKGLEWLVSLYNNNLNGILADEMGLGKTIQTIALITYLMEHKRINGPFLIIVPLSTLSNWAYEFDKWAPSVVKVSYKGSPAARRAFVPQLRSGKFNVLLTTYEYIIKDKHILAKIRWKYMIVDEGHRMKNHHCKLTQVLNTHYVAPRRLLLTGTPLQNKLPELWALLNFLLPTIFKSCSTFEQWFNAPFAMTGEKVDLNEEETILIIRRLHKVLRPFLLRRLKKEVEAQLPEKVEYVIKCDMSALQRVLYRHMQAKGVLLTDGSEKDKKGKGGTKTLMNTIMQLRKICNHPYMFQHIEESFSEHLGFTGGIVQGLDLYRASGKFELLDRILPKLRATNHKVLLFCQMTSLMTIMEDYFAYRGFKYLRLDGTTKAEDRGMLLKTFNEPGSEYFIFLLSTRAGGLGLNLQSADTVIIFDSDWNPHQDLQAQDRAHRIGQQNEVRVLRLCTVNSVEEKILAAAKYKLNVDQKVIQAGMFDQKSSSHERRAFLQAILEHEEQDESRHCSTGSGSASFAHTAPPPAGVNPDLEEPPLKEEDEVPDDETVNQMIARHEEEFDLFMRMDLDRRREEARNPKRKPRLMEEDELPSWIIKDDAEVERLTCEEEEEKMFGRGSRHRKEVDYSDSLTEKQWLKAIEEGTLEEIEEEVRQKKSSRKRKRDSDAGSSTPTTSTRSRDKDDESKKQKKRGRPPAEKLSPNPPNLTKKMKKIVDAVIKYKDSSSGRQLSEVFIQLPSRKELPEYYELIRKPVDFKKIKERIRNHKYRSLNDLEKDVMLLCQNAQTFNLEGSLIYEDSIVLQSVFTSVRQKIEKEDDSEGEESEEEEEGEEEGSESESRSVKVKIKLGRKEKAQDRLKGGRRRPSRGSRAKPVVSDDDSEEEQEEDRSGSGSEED
T2 sequence (P51531 whole entry): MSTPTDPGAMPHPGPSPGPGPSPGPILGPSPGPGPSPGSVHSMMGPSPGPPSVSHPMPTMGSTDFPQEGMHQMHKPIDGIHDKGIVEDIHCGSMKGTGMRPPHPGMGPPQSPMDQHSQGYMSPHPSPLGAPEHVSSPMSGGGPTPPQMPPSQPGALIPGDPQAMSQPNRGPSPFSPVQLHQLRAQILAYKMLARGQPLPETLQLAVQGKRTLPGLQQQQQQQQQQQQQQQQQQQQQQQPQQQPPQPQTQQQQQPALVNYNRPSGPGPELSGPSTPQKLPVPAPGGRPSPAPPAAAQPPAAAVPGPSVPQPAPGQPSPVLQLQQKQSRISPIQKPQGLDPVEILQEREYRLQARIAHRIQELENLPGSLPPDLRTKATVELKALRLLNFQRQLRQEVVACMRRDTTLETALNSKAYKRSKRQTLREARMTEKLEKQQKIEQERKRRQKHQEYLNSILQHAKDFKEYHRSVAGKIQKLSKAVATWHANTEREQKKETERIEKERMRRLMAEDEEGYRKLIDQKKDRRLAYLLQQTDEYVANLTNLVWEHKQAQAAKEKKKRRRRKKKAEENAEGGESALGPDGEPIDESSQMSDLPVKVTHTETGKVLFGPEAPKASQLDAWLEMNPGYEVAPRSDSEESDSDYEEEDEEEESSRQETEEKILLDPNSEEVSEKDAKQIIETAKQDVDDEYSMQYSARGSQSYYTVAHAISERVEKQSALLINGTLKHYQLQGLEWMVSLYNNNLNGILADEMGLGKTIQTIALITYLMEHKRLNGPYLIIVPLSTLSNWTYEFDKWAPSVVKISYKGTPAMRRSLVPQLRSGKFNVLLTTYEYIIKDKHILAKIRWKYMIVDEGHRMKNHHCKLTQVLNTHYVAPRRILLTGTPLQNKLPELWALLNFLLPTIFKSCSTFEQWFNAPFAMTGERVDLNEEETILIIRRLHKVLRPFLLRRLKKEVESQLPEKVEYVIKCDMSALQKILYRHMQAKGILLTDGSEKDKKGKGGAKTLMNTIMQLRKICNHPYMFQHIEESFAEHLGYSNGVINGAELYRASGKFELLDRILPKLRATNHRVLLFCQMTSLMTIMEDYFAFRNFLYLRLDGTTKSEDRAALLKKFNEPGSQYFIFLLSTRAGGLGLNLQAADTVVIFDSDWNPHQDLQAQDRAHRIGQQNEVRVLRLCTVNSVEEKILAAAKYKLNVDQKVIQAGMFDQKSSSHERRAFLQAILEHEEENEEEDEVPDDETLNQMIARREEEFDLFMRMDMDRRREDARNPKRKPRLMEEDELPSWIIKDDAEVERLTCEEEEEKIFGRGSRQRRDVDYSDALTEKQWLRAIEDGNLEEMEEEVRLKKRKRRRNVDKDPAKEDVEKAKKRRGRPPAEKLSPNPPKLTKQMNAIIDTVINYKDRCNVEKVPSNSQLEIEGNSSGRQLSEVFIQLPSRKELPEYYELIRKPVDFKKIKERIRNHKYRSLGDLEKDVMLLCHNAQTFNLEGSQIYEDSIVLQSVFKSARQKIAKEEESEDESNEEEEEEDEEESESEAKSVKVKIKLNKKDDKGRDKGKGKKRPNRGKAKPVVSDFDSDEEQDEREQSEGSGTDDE

As to `CC(C)(C)n1ccc(C(=O)NCc2nc3ccc(-c4cnn5ccccc45)cc3[nH]2)c1` [Compound 47], the IC50 in test [1] and in test [2] was 10 to 100 nM each time.
As for `Cn1ncc2c(-c3ccc4nc(CNC(=O)c5ccn(C(C)(C)C)c5)[nH]c4c3)cccc21` [Compound 48], the IC50 in test [1] and in test [2] was 10 to 100 nM throughout.
As for `Cc1nn(C)c2ccc(-c3ccc4nc(CNC(=O)c5ccn(C(C)(C)C)c5)[nH]c4c3)cc12` [Compound 49], the IC50 in test [1] and in test [2] was 10 to 100 nM each time.
As to `Cc1nc2cc(-c3ccc4nc(CNC(=O)c5ccn(C(C)(C)C)c5)[nH]c4c3)ccc2s1` [Compound 50], the IC50 fell in the range of 100 to 1000 nM in test [1] and 10 to 100 nM in test [2].
Turning to `CC(C)(C)n1ccc(C(=O)NCc2nc3ccc(-c4cccc5ccncc45)cc3[nH]2)c1` [Compound 51], the IC50 in test [1] was 100 to 1000 nM; in test [2], 10 to 100 nM.
In the same order, the values of `Cc1ccc2ccc(-c3ccc4nc(CNC(=O)c5ccn(C(C)(C)C)c5)[nH]c4c3)cc2n1` [Compound 52] are 10 to 100 nM and 10 to 100 nM.
Take `CC(C)(C)n1ccc(C(=O)NCc2nc3ccc(-c4ccc(CC#N)cc4)cc3[nH]2)c1` [Compound 53]: the IC50 in test [1] and in test [2] was 100 to 1000 nM throughout.
`CC(C)(C)n1ccc(C(=O)NCc2nc3ccc(-c4ccc(-n5cccn5)cc4)cc3[nH]2)c1` [Compound 54]: the IC50 in test [1] and in test [2] was 100 to 1000 nM each time.
For the compound `CC(C)(C)n1ccc(C(=O)NCc2nc3ccc(-c4ccc(N5CCOCC5)nc4)cc3[nH]2)c1` [Compound 55], the IC50 in test [1] and in test [2] was 100 to 1000 nM each time.
As to `CN(C)c1ncc(-c2ccc3nc(CNC(=O)c4ccn(C(C)(C)C)c4)[nH]c3c2)cn1` [Compound 56], the IC50 in test [1] and in test [2] was 10 to 100 nM in each case.
In the case of `Cc1ccc2cc(-c3ccc4nc(CNC(=O)c5ccn(C(C)(C)C)c5)[nH]c4c3)ccc2n1` [Compound 57], the IC50 in test [1] and in test [2] was 10 to 100 nM each time.
Consider `CC(C)(C)n1ccc(C(=O)NCc2nc3ccc(-c4ccc5c(c4)OCO5)cc3[nH]2)c1` [Compound 58], for which the IC50 lay in the range of 100 to 1000 nM in test [1] and 10 to 100 nM in test [2].
Consider `COCCOc1ccc(-c2ccc3nc(CNC(=O)c4ccn(C(C)(C)C)c4)[nH]c3c2)cc1` [Compound 59], for which the IC50 in test [1] and in test [2] was 100 to 1000 nM each time.
Turning to `COc1ncc(-c2ccc3nc(CNC(=O)c4ccn(C(C)(C)C)c4)[nH]c3c2)cc1Cl` [Compound 60], the IC50 in test [1] fell in the range of 100 to 1000 nM; in test [2], 10 to 100 nM.
As to `CS(=O)(=O)n1ccc(C(=O)NCc2cc3nc(-c4ccccc4)ccc3cn2)c1` [Compound 61, 1-(methylsulfonyl)-N-((2-phenyl-1,6-naphthyridin-7-yl)methyl)-1H-pyrrole-3-carboxamide], the IC50 in test [1] and in test [2] was 100 to 1000 nM each time.
Turning to `COc1cccc(-c2ccc3cnc(CNC(=O)c4ccn(S(C)(=O)=O)c4)cc3n2)c1` [Compound 62], the IC50 in test [1] and in test [2] was 100 to 1000 nM in each case.
In the case of `CS(=O)(=O)n1ccc(C(=O)NCc2cc3nc(-c4ccc(N5CCC5)cc4)ccc3cn2)c1` [Compound 63], the IC50 in test [1] and in test [2] was 100 to 1000 nM throughout.
Turning to `CS(=O)(=O)n1ccc(C(=O)NCc2cc3nc(-c4cccc(N5CCC5)c4)ccc3cn2)c1` [Compound 64, N-[[2-[3-(azetidin-1-yl)phenyl]-1,6-naphthyridin-7-yl]methyl]-1-methylsulfonyl-pyrrole-3-carboxamide], the IC50 fell in the range of 100 to 1000 nM in test [1] and 10 to 100 nM in test [2].
On to `CS(=O)(=O)n1ccc(C(=O)NCc2cc3nc(-c4cccc(C(F)F)c4)ccc3cn2)c1` [Compound 65], for which the IC50 in test [1] and in test [2] was 100 to 1000 nM in each case.
Take `CS(=O)(=O)n1ccc(C(=O)NCc2cc3nc(-c4cccc(C#N)c4)ccc3cn2)c1` [Compound 66, N-((2-(3-cyanophenyl)-1,6-naphthyridin-7-yl)methyl)-1-(methylsulfonyl)-1H-pyrrole-3-carboxamide]: the IC50 in test [1] and in test [2] was > 1000 nM in each case.
In the case of `CS(=O)(=O)n1ccc(C(=O)NCc2cc3nc(-c4ccc5c(c4)CCO5)ccc3cn2)c1` [Compound 67], the IC50 in test [1] and in test [2] was 100 to 1000 nM throughout.
Consider `CS(=O)(=O)n1ccc(C(=O)NCc2cc3nc(-c4ccc5c(c4)OCC5)ccc3cn2)c1` [Compound 68], for which the IC50 in test [1] and in test [2] was 100 to 1000 nM each time.
As to `CN1CCOc2ccc(-c3ccc4cnc(CNC(=O)c5ccn(S(C)(=O)=O)c5)cc4n3)cc21` [Compound 69], the IC50 in test [1] lay in the range of 100 to 1000 nM; in test [2] it was 10 to 100 nM.
In the same order, the values of `CS(=O)(=O)n1ccc(C(=O)NCc2cc3nc(-c4cccc(OC5CC5)c4)ccc3cn2)c1` [Compound 70] are 100 to 1000 nM and 100 to 1000 nM.
Turning to `Cn1cc(-c2cccc(-c3ccc4cnc(CNC(=O)c5ccn(S(C)(=O)=O)c5)cc4n3)c2)cn1` [Compound 71], the IC50 was 100 to 1000 nM in test [1] and 10 to 100 nM in test [2].
For `CN1CCc2cc(-c3ccc4cnc(CNC(=O)c5ccn(S(C)(=O)=O)c5)cc4n3)ccc21` [Compound 72], the IC50 in test [1] and in test [2] was 100 to 1000 nM in each case.
Turning to `CS(=O)(=O)n1ccc(C(=O)NCc2cc3nc(-c4ccccc4)sc3cn2)c1` [Compound 73, 1-methylsulfonyl-N-[(2-phenylthiazolo[5,4-c]pyridin-6-yl)methyl]pyrrole-3-carboxamide], the IC50 in test [1] and in test [2] was 100 to 1000 nM each time.
For `COc1ccccc1-c1ccc2cnc(CNC(=O)c3ccn(S(C)(=O)=O)c3)cc2n1` [Compound 75], the results for the IC50 in test [1] and in test [2] were 100 to 1000 nM and 10 to 100 nM, respectively.
Turning to `C[C@@H]1CN(c2cccc(-c3ccc4cnc(CNC(=O)c5ccn(S(C)(=O)=O)c5)cc4n3)n2)C[C@H](C)O1` [Compound 76, N-((2-(6-(cis-2,6-dimethylmorpholino)pyridin-2-yl)-1,6-naphthyridin-7-yl)methyl)-1-(methylsulfonyl)-1H-pyrrole-3-carboxamide], the IC50 in test [1] is 10 to 100 nM; in test [2], < 10 nM.
In the same order, the values of `C[C@@H]1CN(c2cccc(-c3ccc4cnc(CNC(=O)c5ccn(C(C)(C)C)c5)cc4n3)n2)C[C@H](C)O1` [Compound 77] are 10 to 100 nM and 10 to 100 nM.
For `C[C@@H]1CN(c2cccc(-c3ccc4cnc(CNC(=O)c5ccn(C(C)(C)C)n5)cc4n3)n2)C[C@H](C)O1` [Compound 78], the IC50 lay in the range of 100 to 1000 nM in test [1] and 10 to 100 nM in test [2].
For `C[C@@H]1CN(c2cccc(-c3ccc4cnc(CNC(=O)c5ccn(C(C)(C)C#N)n5)cc4n3)n2)C[C@H](C)O1` [Compound 79], the IC50 in test [1] and in test [2] was 10 to 100 nM in each case.
In the case of `CS(=O)(=O)n1ccc(C(=O)NCc2cc3nc(-c4cncc(C5CC5)n4)ccc3cn2)c1` [Compound 80, N-[[2-(6-cyclopropylpyrazin-2-yl)-1,6-naphthyridin-7-yl]methyl]-1-methylsulfonyl-pyrrole-3-carboxamide], the IC50 lay in the range of 100 to 1000 nM in test [1] and 10 to 100 nM in test [2].
Take `COC[C@H](NC(=O)c1ccn(S(C)(=O)=O)c1)c1cc2nc(-c3cccc(N4C[C@@H](C)O[C@@H](C)C4)n3)ccc2cn1` [Compound 82]: the IC50 in test [1] lay within 100 to 1000 nM; in test [2], 10 to 100 nM.
